# Results from patent publication US20230279341A1, “NOVEL FAECALIBACTERIUM PRAUSNITZII STRAIN EB-FPDK9 AND USE THEREOF” (ENTEROBIOME INC., priority 2020, published 2023).
# Legend:
# Format in all cases: cell-based
# [1] = test system: Faecalibacterium prausnitzii DSM 17677^T; test: MIC, liquid medium microdilution method (CLSI), standard strain
# [2] = test system: Faecalibacterium prausnitzii EB-FPDK9 strain; test: MIC, liquid medium microdilution method (CLSI), EB-FPDK9 strain; conditions: for Resistance or susceptibility of the EB-FPDK9 strain to the antimicrobial agent, in words: text summary of Table 4
# [3] = test system: Bacteroides thetiotaomicron ATCC 29741; test: MIC, liquid medium microdilution method (CLSI), QC strain
compound,measurement,setting,value
"O=C(N[C@H](CO)[C@H](O)c1ccc([N+](=O)[O-])cc1)C(Cl)Cl [CHL, chloramphenicol]","Susceptibility class (S/I/R), DSM 17677^T",[1]; CHL breakpoints,R (≥32)
same,"Susceptibility class (S/I/R), EB-FPDK9",[2]; CHL breakpoints,R (≥32)
same,"Resistance or susceptibility of the EB-FPDK9 strain to the antimicrobial agent, in words",[2],resistance
"CCC[C@@H]1C[C@@H](C(=O)N[C@@H]([C@H]2O[C@H](SC)[C@H](O)[C@@H](O)[C@H]2O)[C@H](C)Cl)N(C)C1 [CLI, clindamycin]","Susceptibility class (S/I/R), DSM 17677^T",[1]; CLI breakpoints,S (≤2)
same,"Susceptibility class (S/I/R), EB-FPDK9",[2]; CLI breakpoints,S (≤2)
"CO/N=C(\C(=O)N[C@@H]1C(=O)N2C(C(=O)O)=CCS[C@H]12)c1csc(N)n1 [CTZ, ceftizoxime]","Susceptibility class (S/I/R), DSM 17677^T",[1]; CTZ breakpoints,I (64)
same,"Susceptibility class (S/I/R), EB-FPDK9",[2]; CTZ breakpoints,R (≥128)
same,"Resistance or susceptibility of the EB-FPDK9 strain to the antimicrobial agent, in words",[2],resistance
"C[C@@H](O)[C@H]1C(=O)N2C(C(=O)O)=C(S[C@@H]3CN[C@H](C(=O)N(C)C)C3)[C@H](C)[C@H]12 [MEM, meropenem]","Susceptibility class (S/I/R), DSM 17677^T",[1]; MEM breakpoints,R (≥16)
same,"Susceptibility class (S/I/R), EB-FPDK9",[2]; MEM breakpoints,R (≥16)
same,"Resistance or susceptibility of the EB-FPDK9 strain to the antimicrobial agent, in words",[2],resistance
same,MIC,"[3]; Bacteroides, ATCC29741, read-out: MIC, QC ATCC 29741",0.5 µg/mL
"Cc1ncc([N+](=O)[O-])n1CCO [MTZ, metronidazole]","Susceptibility class (S/I/R), DSM 17677^T",[1]; MTZ breakpoints,S (≤8)
same,"Susceptibility class (S/I/R), EB-FPDK9",[2]; MTZ breakpoints,S (≤8)
same,"Resistance or susceptibility of the EB-FPDK9 strain to the antimicrobial agent, in words",[2],susceptibility
"COc1c(N2C[C@@H]3CCCN[C@@H]3C2)c(F)cc2c(=O)c(C(=O)O)cn(C3CC3)c12 [MXF, moxifloxacin]","Susceptibility class (S/I/R), DSM 17677^T",[1]; MXF breakpoints,R (≥8)
same,"Susceptibility class (S/I/R), EB-FPDK9",[2]; MXF breakpoints,R (≥8)
Piperacillin-tazobactam [PTZ],"MIC, test strain DSM 17677^T",[1]; F. prausnitzii DSM 17677^T,256/4
same,"Susceptibility class (S/I/R), DSM 17677^T",[1]; PTZ breakpoints,R (≥128/4)
same,"MIC, test strain EB-FPDK9",[2]; F. prausnitzii EB-FPDK9,32/4
same,"Susceptibility class (S/I/R), EB-FPDK9",[2]; PTZ breakpoints,S (≤32/4)
same,"Resistance or susceptibility of the EB-FPDK9 strain to the antimicrobial agent, in words",[2],susceptibility
same,"MIC, QC ATCC 29741",[3]; Bacteroides thetiotaomicron ATCC 29741,8/4
